{
  "source": "patent US9149488B2",
  "about": "“Pharmaceutical composition and use of diethyl (2-cyanoethyl)phosphonate” (Olatec Industries LLC, priority 2013, dated 2015)",
  "key": {"[1]": {"test_system": "arachidonic acid-induced ear swelling", "assay": "Topical arachidonic acid-induced ear swelling model in mice (topical administration)", "format": "in vivo, Male ICR mice", "procedure": "Diethyl(2-cyanoethyl)phosphonate, was obtained from Sigma-Aldrich and used in this experiment.\nThe test compound, indomethacin (positive control), and vehicle (acetone:ethanol/1:1) were evaluated for anti-inflammatory activity in a topical arachidonic acid-induced ear swelling model in mice.\nMale ICR mice weighing 22±2 g were used and randomly divided; the test compound and vehicle control had 10 mice, and indomethacin had 5 mice. Arachidonic Acid (0.5 mg in 20 μl of acetone:ethanol/1:1) was applied topically to the anterior and posterior surfaces of the right ear of each mice. Test substances (in vehicle) and vehicle, as listed in Table 1 were similarly applied 30 min before and 15 min after arachidonic acid application. The thickness of the right ear and the left ear was measured and the difference calculated as an indication of the inflammation in the right ear. Ear swelling was measured by a Dyer model micrometer gauge at 60 and 90 minutes after arachidonic acid application as an index of inflammation. Percent inhibition was calculated according to the formula: Ic−It/Ic×100, where Ic and It refers to increase of ear thickness (mm) in control and treated mice, respectively. An ANOVA was done, and if p<0.05, a Dunnett's t test was employed to calculate significant difference between vehicle control and test compound treated groups. […]"}, "[2]": {"test_system": "arachidonic acid-induced ear swelling", "assay": "Arachidonic acid-induced ear swelling in mice (intraperitoneal administration)", "format": "in vivo", "conditions": "measured at 90 minutes", "procedure": "The protocols of this experiment were similar to Example 3, except the following differences. Test substance diethyl(2-cyanoethyl)phosphonate was dissolved in PBS to generate 1, 3 and 10 mg/mL testing solutions. Vehicle (PBS) at 10 mL/kg and diethyl(2-cyanoethyl)phosphonate at 10 mL/kg (10, 30, and 100 mg/kg) were administered intraperitoneally at 1 hour, and again 15 minutes before arachidonic acid (0.5 mg/ear) challenge. The positive control dexamethasone was administered orally 3 hours before arachidonic acid.\nAn ANOVA was done, and if p<0.05, a Dunnett's t test was employed to calculate significant difference between vehicle control and treated groups. Significance is set at P<0.05 level.\n(§1) An ANOVA was done, and if p<0.05, a Dunnett's t test was employed to calculate significant difference between vehicle control and test compound treated groups. A pairwise Student's t test was used to calculate differences between the dexamethasone group and the control group. Significance is set at P<0.05 level."}, "[3]": {"test_system": "tail flick response to heat stimulus (49° C. water bath)", "assay": "Tail flick test in mice (oral administration)", "format": "in vivo", "procedure": "Tail flick test is a test of the pain response in animals. Tail flick test is used in basic pain research and to measure the effectiveness of analgesics, by observing the tail flick reaction to heat in an animal. This test assesses the nociceptive response to a local pain stimulus, and the ability of a drug to inhibit this response.\nVehicle control (water) and test compound diethyl(2-cyanoethyl)phosphonate in water were administered by oral gavage to mice with a volume of 10 mL/kg, twice, at 60 and 15 minutes before the first tail flick measurement. The test compound was administered at a dosage of 10, 30, or 100 mg/kg in water. The positive control compound morphine was administered by subcutaneous injection at 8 mg/kg with a volume of 8 mL/kg, at 15 minutes before the first tail flick measurement. Each group had 10 mice.\nThe response of mice to heat stimulus was evaluated by measuring the time of tail-flick or tail-flick latency from 49° C. water bath. Briefly, the animal was placed in a restrainer with its tail hanging down. Approximately 2 inches of the tail was immersed in a beaker of water at 38±1° C. for about 30 seconds, and this was done twice to acclimate the animal to the procedure.\nSubsequently, approximately 2 inches of the tail was immersed in a beaker of water at 49±1° C., at which point a timer was started.\nTail flick measurements were made 60, 80, 100, and 120 minutes post administration of the first dosage of test compound. An ANOVA was done, and if p<0.05, a Dunnett's t test was employed to calculate significant difference between vehicle control and test compound treated groups. A pairwise Student's t test was used to calculate differences between the morphine group and the control group. […] Analysis with p-values <0.05 is considered significant."}, "[4]": {"test_system": "formalin-induced paw licking", "assay": "Formalin test in mice (oral administration)", "format": "in vivo, Male CD-1 mice", "procedure": "Formalin test is a model of continuous pain resulting from formalin-induced tissue injury. Nociceptive and inflammatory pain was induced by injection of a dilute formalin solution into the paw, resulting in nocifensive behavior including paw flinching. The formalin model encompasses inflammatory, neurogenic, and central mechanism of pain. The early phase of pain (from 0 to about 10 minutes) is due to nociceptive mechanism and the late phase of pain (from 10-40 minutes) is due to a combination of inflammatory pain and nociceptive mechanism. Pain behavior is assessed using manual paw licking measurements. The endpoints of the study are the number of paw licking events. (Hunskaar et al., Pain, 30:103-114, 1987; Li et al., Molecular Pain, 6:11, 2010)\nMale CD-1 mice, about 34 g, were used in the study. Mice had free access to food and water, were maintained on a 12 hour: 12 hour light/dark schedule for the entire duration of the study, and housed in soft bedding five per cage.\nImmediately prior to testing (at time 0), mice were restrained in a cloth and injected with 20 μL of a 5% formalin solution, subcutaneously into the dorsal surface of the left hind paw. Vehicle control (n=10, water) and test compound diethyl(2-cyanoethyl)phosphonate (n=9, in water) and were administered by oral gavage with a volume of 10 mL/kg to mice. The amounts of test compound were 10, 30, or 100 mg/kg per dose.\nPositive control morphine was administered by subcutaneous injection at 4 mg/kg with a volume of 4 mL/kg to mice (n=10). […] The purpose of morphine is not to serve as a comparison with the test compound.\nMorphine was subcutaneously administered once 15 minutes before formalin injection. The test compounds and vehicle control were orally administered twice (BID), at 60 and 15 minutes before formalin injection at time zero.\nFollowing formalin injection, animals were placed in individual cages, and manually observed for 60 minutes. The licking events were recorded in five minute intervals continuously for a total of 60 minutes.\nas §1, with “The number of licking events per minute was calculated between 0-10 minutes and 10-40 minutes for vehicle, positive control, and test compound. An” for “An”, “morphine” for “dexamethasone”"}, "[5]": {"test_system": "formalin-induced paw licking", "procedure": "The test compound diethyl(2-cyanoethyl)phosphonate (375 mM in vehicle, n=16) and vehicle control (acetone:ethanol 1:1, n=16) were administered topically by submerging the mouse left hind paw in the respective solution for about 30 seconds. The paw was then withdrawn and wiped with tissue to avoid excess dermal drying.\nPositive control morphine was administered by subcutaneous injection at 4 mg/kg with a volume of 4 mL/kg to mice (n=16).\nMorphine was subcutaneously administered once 15 minutes before formalin injection. The test compounds and vehicle control were topically administered twice (BID), at 90 and 15 minutes before formalin injection.\nFollowing formalin injection, animals were placed in individual cages, and manually observed for 60 minutes. The licking events were recorded in five minute intervals continuously for a total of 40 minutes.\nThe number of licking events per minute was calculated between 0-10 minutes and 10-40 minutes for vehicle, positive control, and test compound. A two-sample t-test was done to compare the vehicle group with the test compound group. Significance is set at P<0.05 level. The same statistics were done comparing the vehicle group with the positive control group."}, "[6]": {"test_system": "IL-6, TNFα, IFNγ, MIP-2 and RANTES", "assay": "Pro-inflammatory cytokine release in rat challenged in vivo with lipopolysaccharide", "conditions": "given orally to rat, then lipopolysaccharide challenge in vivo"}},
  "note": "Like-named read-outs stand apart in the source and are kept apart here.",
  "data": [
    {"smiles": "CCOP(=O)(CCC#N)OCC", "note": "[Diethyl (2-cyanoethyl) phosphonate, Diethyl(2-cyanoethyl)phosphonate]", "values": [
      {"measurement": "Anti-inflammatory activity in mouse ear swelling model", "setting": "[1]; applied topically, inflammation induced by arachidonic acid", "result": "anti-inflammatory"},
      {"measurement": "% Inhibition of ear swelling", "setting": "[1]; topical, 375 mM in acetone:ethanol (1:1), 20 μL (1.4 mg/ear) applied twice, 90 minutes after arachidonic acid", "result": 55, "unit": "%"},
      {"measurement": "% Inhibition of ear swelling", "setting": "[2]; 10 mg/kg intraperitoneally at 1 hour and 15 minutes before arachidonic acid", "result": "−8", "unit": "%"},
      {"measurement": "% Inhibition of ear swelling", "setting": "[2]; 30 mg/kg intraperitoneally at 1 hour and 15 minutes before arachidonic acid", "result": 0, "unit": "%"},
      {"measurement": "% Inhibition of ear swelling", "setting": "[2]; 100 mg/kg intraperitoneally at 1 hour and 15 minutes before arachidonic acid", "result": 34, "unit": "%"},
      {"measurement": "% Inhibition of ear swelling", "setting": "[2]; 100 mg/kg intraperitoneally at 1 hour and 15 minutes before arachidonic acid, listed as tested compound", "result": 37, "unit": "%"},
      {"measurement": "Tail flick latency compared with vehicle-treated mice", "setting": "[3]; 30 mg/kg oral, given twice, measured at 60, 80, 100, 120 minutes, FIG. 1", "result": "statistically significant tail flick latency at 60 and 80 minutes"},
      {"measurement": "Tail flick latency compared with vehicle-treated mice", "setting": "[3]; 100 mg/kg oral, given twice, measured at 60, 80, 100, 120 minutes, FIG. 1", "result": "statistically significant tail flick latency at 60 and 100 minutes"},
      {"measurement": "Licks per min (Between 0-10 min)", "setting": "[4]; 100 mg/kg oral BID, early phase", "result": 3.1, "unit": "Licks per min"},
      {"measurement": "Licks per min (Between 10-40 min)", "setting": "[4]; 100 mg/kg oral BID, late phase", "result": 0.59, "unit": "Licks per min"},
      {"measurement": "Duration of efficacy", "setting": "[4]; 100 mg/kg oral BID, after 40 minutes", "result": "did not last after 40 minutes"},
      {"measurement": "Difference in the number of events vs control", "setting": "[4]; 100 mg/kg oral BID, early phase 0-10 minutes", "result": "no statistically significant difference"},
      {"measurement": "Reduction in the number of events vs vehicle", "setting": "[4]; 100 mg/kg oral BID, late phase 10-40 minutes", "result": "statistically significant (p<0.05) reduction"},
      {"measurement": "Licks per min (Between 0-10 min)", "setting": "[5]; 375 mM topical BID (paw submerged), early phase", "result": 4.0, "unit": "Licks per min"},
      {"measurement": "Licks per min (Between 10-40 min)", "setting": "[5]; 375 mM topical BID (paw submerged), late phase", "result": 1.1, "unit": "Licks per min"},
      {"measurement": "Difference in the number of events vs control", "setting": "[5]; 375 mM topical, early phase 0-10 minutes", "result": "no statistically significant difference"},
      {"measurement": "Reduction in the number of events vs vehicle", "setting": "[5]; 375 mM topical, late phase 10-40 minutes", "result": "statistically significant (p<0.05) reduction"},
      {"measurement": "Paw licking events after topical application alone", "setting": "[5]; topical application without injection of formalin", "result": "negligible number of paw licking events"},
      {"measurement": "Inhibition of pro-inflammatory cytokine release (IL-6, TNFα, IFNγ, MIP-2 and RANTES)", "setting": "[6]", "result": "effective in inhibiting pro-inflammatory cytokine release"}
    ]},
    {"smiles": "CN1CC[C@]23c4c5ccc(O)c4O[C@H]2[C@@H](O)C=C[C@H]3[C@H]1C5", "note": "[Morphine, morphine, reference compound]", "values": [
      {"measurement": "Tail flick latency compared with vehicle-treated mice", "setting": "[3]; mouse, in vivo", "result": "statistically significant tail flick latency at all measured time points"},
      {"measurement": "Duration of efficacy", "setting": "[4]; mouse, in vivo", "result": "did not last after 40 minutes"},
      {"measurement": "Licks per min (Between 0-10 min)", "setting": "[4]; mouse, in vivo", "result": 2.1, "unit": "Licks per min"},
      {"measurement": "Licks per min (Between 10-40 min)", "setting": "[4]; mouse, in vivo", "result": 0.47, "unit": "Licks per min"},
      {"measurement": "Reduction in the number of events vs vehicle", "setting": "[4]; mouse, in vivo", "result": "statistically significant (p<0.05) reductions"},
      {"measurement": "Licks per min (Between 0-10 min)", "setting": "[5]; mouse, in vivo", "result": 2.5, "unit": "Licks per min"},
      {"measurement": "Licks per min (Between 10-40 min)", "setting": "[5]; mouse, in vivo", "result": 0.53, "unit": "Licks per min"},
      {"measurement": "Reduction in the number of events vs vehicle", "setting": "[5]; mouse, in vivo", "result": "statistically significant (p<0.05) reductions"}
    ]}
  ]
}
